Test results from patent publication US20120214818A1, “METHODS OF TREATING DIASTOLIC DYSFUNCTION AND RELATED CONDITIONS” (THE BOARD OF TRUSTEES OF THE UNIVERSITY OF ILLINOIS, priority 2009, published 2012).
Several values for one entry are separate records, joined by “and”; a condition that tells them apart may be missing. Equal values may be shown once.

Legend:
DOCA-salt and sham mice [1] = experiment: Echocardiography after chronic administration of ranolazine; type: in vivo, mouse; details: for ES (%): chronic ranolazine in diet (5 mg per 1-g tablet, ~1 g daily) for 7 days
Protocol: A special diet contained 5 mg ranolazine, 0.3 mg P450 inhibitor, and 0.25 mg red food color was pressed into a 1-g nutritionally complete grain-based tablet (Harlan, Madison, Wis.). The control diet contained 0.3 mg P450 inhibitor and 0.25 mg yellow food color pressed into the same type of 1-g tablets. DOCA-salt and sham mice consumed daily ˜1 g of the special diet from postoperative day 11 to 18.
Mice were anesthetized, maintained at 37° C., and studied by echocardiography (Vevo 770, VisualSonics Inc, Toronto, Canada). M-mode images in the parasternal long axis and the left ventricle (LV) short-axis views at the mid-papillary level were taken. Measurements were averaged from three consecutive beats during expiration. LV inflow velocities (E and A waves) were interrogated by conventional pulsed-wave Doppler from the apical four-chamber view. The mitral annulus longitudinal velocities (Sm, E′, and A′) were determined by pulsed-wave tissue Doppler from the apical four-chamber view. Interpretation was done by a two investigators blinded to the treatment groups. First, baseline images were acquired. Subsequently to determine the acute effect, the mice were injected with 30 mg/kg ranolazine by intraperitoneal route, followed by a second echocardiogram 30 min later.
In an additional set of experiments, we treated DOCA-salt mice with ranolazine for 7 days and measured diastolic function using echocardiography to evaluate the effect of chronic ranolazine therapy on myocardial function (Table 5).

DOCA-salt and sham mice [2] = experiment: Invasive hemodynamic (pressure-volume catheter) assessment of diastolic dysfunction, acute ranolazine; type: in vivo, mouse; details: for DBP, diastolic blood pressure / EDPVR, end diastolic pressure volume relationship (slope) / EF, ejection fraction (invasive) / ESPVR, end systolic pressure volume relationship / HR, heart rate / LVEDP, left ventricular end diastolic pressure / LVESP, left ventricular end systolic pressure / dP/dt max / dP/dt min: ranolazine 5 mg/kg i.v. then 4.8 mg/kg/h; for SBP, systolic blood pressure: ranolazine 5 mg/kg intravenous injection then infusion 4.8 mg/kg/h
Protocol: Generation of DOCA-salt mouse model: Previously, it was shown that this model leads to mild hypertension, myocardial oxidative stress, and diastolic dysfunction.^20 A gradual and mild elevation in blood pressure was induced by unilateral nephrectomy, subcutaneous implantation of a controlled release deoxycorticosterone acetate (DOCA) pellet (0.7 mg/d; Innovative Research of America, Sarasota, Fla.), and substituting drinking water with 1.05% saline. Control animals underwent a sham operation, had placebo pellet implantation, and received water without salt. Invasive assessment of diastolic dysfunction: Mice were anesthetized with 1-1.5% isoflurane and maintained at 37° C. The pressure-volume (PV) catheter was inserted into the right common carotid artery and advanced into the LV. […] Volume and parallel conductance calibration were performed as previously described.^20 Baseline hemodynamic measurements were obtained, and subsequently, the mice received an intravenous injection of ranolazine (5 mg/kg) followed by an infusion at 4.8 mg/kg/h, while additional hemodynamic measurements were recorded. Blood samples were obtained during the last five minutes of the procedure to determine the plasma ranolazine concentration. Previously, we have shown that this model leads to mild hypertension, myocardial oxidative stress, and diastolic dysfunction.^20 A gradual and mild elevation in blood pressure was induced by unilateral nephrectomy, subcutaneous implantation of a controlled release deoxycorticosterone acetate (DOCA) pellet (0.7 mg/d; Innovative Research of America, Sarasota, Fla.), and substituting drinking water with 1.05% saline. Control animals underwent a sham operation, had placebo pellet implantation, and received water without salt. Mice were anesthetized with 1-1.5% isoflurane and maintained at 37° C. The pressure-volume (PV) catheter was inserted into the right common carotid artery and advanced into the LV. […] Volume and parallel conductance calibration were performed as previously described.^20 Baseline hemodynamic measurements were obtained, and subsequently to determine the acute effect, the mice received an intravenous injection of ranolazine (5 mg/kg) followed by an infusion at 4.8 mg/kg/h, while additional hemodynamic measurements were recorded. Blood samples were obtained during the last five minutes of the procedure to determine the plasma ranolazine concentration.

[3] = tested on: dog model of chronic heart failure; details: cited from earlier work
[4] = DOCA-salt mice, chronic ranolazine in diet, 7 days
[5] = sham mice, chronic ranolazine in diet, 7 days

## COc1ccccc1OCC(O)CN1CCN(CC(=O)Nc2c(C)cccc2C)CC1 (centres unmarked) [ranolazine]
DOCA-salt and sham mice [1]; DOCA-salt mice
  ES (%): 53.3 ± 1.3%
DOCA-salt and sham mice [1]; [4]
  E/A: 1.84 ± 0.35
  E′, early septal mitral annulus velocity (TDI): 1.86 ± 0.13 cm/s
  Sm, systolic septal mitral annulus velocity (TDI): 1.82 ± 0.05 cm/s
DOCA-salt and sham mice [1]; sham mice
  ES (%): 49.7 ± 4.9%
DOCA-salt and sham mice [1]; [5]
  E/A: 2.42 ± 0.42
  E/E′: 28.0 ± 3.45
  E′, early septal mitral annulus velocity (TDI): 2.11 ± 0.21 cm/s
  E′/A′: 1.03 ± 0.07
  Sm, systolic septal mitral annulus velocity (TDI): 2.04 ± 0.12 cm/s
DOCA-salt and sham mice [2]; DOCA-salt mice, n=6, p<0.05
  Pearson correlation coefficient of EDPVR with serum/plasma ranolazine levels: 0.70
DOCA-salt and sham mice [2]; DOCA-salt mice
  DBP, diastolic blood pressure: 73 ± 2 mmHg
  EDPVR, end diastolic pressure volume relationship (slope): 0.17±0.01 mmHg/μL
  EF, ejection fraction (invasive): 67 ± 4%
  ESPVR, end systolic pressure volume relationship: 4.1 ± 0.2 mmHg/μL
  HR, heart rate: 588 ± 16 bpm
  LVEDP, left ventricular end diastolic pressure: 3.5±0.4 mmHg and 3.6 ± 0.4 mmHg
  LVESP, left ventricular end systolic pressure: 98 ± 3 mmHg
  dP/dt max: 12,495 ± 555 mmHg/sec
  dP/dt min: −12,211 ± 792 mmHg/sec
  SBP, systolic blood pressure: 102 ± 3 mmHg
DOCA-salt and sham mice [2]; sham mice
  DBP, diastolic blood pressure: 58 ± 2 mmHg
  EDPVR, end diastolic pressure volume relationship (slope): 0.18±0.01 mmHg/μL
  EF, ejection fraction (invasive): 73 ± 5%
  ESPVR, end systolic pressure volume relationship: 3.9 ± 0.5 mmHg/μL
  HR, heart rate: 620 ± 5 bpm
  LVEDP, left ventricular end diastolic pressure: 4.2 ± 0.5 mmHg
  LVESP, left ventricular end systolic pressure: 84 ± 3 mmHg and 85 ± 3 mmHg
  dP/dt max: 12,032 ± 787 mmHg/sec
  dP/dt min: −10,083 ± 685 mmHg/sec
  SBP, systolic blood pressure: 93 ± 3 mmHg
[3]
  LVEDP: reduces LVEDP
